Experimental data taken from PubChem BioAssay (NCI).
Several values for one entry are separate records, joined by “and”; a condition that tells them apart may be missing. Identical values can stand only once.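 Five concentrations, 48 hours, 96-well plates. The concentration for 50% growth inhibition is given as GI50. TGI: concentration producing complete growth inhibition.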

How the values were obtained:
Assay in all cases: DTP human tumour cell line panel, 48 h
[1] = system: HL-60(TB) leukemia
[2] = system: NCI-H226 lung
[3] = system: MOLT-4 leukemia
[4] = system: K-562 leukemia
[5] = system: LOX IMVI melanoma
[6] = system: SK-MEL-2 melanoma
[7] = system: SK-MEL-28 melanoma
[8] = system: NCI-H460 lung
[9] = system: OVCAR-3 ovarian
[10] = system: PC-3 prostate

SMILES	TGI [1] [µM]	TGI [2] [µM]	TGI [3] [µM]	TGI [4] [µM]	TGI [5] [µM]	TGI [6] [µM]	TGI [7] [µM]	TGI [8]	TGI [9] [µM]	GI50 [3] [µM]	GI50 [4] [µM]	GI50 [5] [µM]	GI50 [8] [µM]	GI50 [9] [µM]	GI50 [6] [µM]	GI50 [7] [µM]	TGI [10] [µM]	GI50 [1] [µM]	GI50 [2] [µM]	GI50 [10] [µM]
S=P1(c2ccccc2)Nc2ccc(Cl)cc2N1 (stereo not drawn)	57.5	> 100	> 100	> 100	> 100	> 100	> 100	> 100 µM	> 100	–	–	–	–	–	–	–	–	–	–	–
COc1ccc(NC(=O)COC(=O)c2cccc3c(=O)c4ccccc4[nH]c23)cc1	25.8	44.6	33.7	37.2	28.3	–	84.8	–	43.8	–	–	–	–	–	–	–	–	–	–	–
N#CCCN(CCC#N)c1ccc(/C=N\c2nc(-c3ccccc3)cs2)cc1	> 100	> 100	> 100	> 100	> 100	> 100	> 100	> 100 µM	> 100	–	–	–	–	–	–	–	–	–	–	–
CCCCCCCCCCCCCC(=O)OC(/C=C/C(C)C)C(O)C(O)C(OC)C(=O)NC1CCCCNC1=O (stereo not drawn)	10.4	8.95	10.5	10.2	4.38	6.03	5.11	3.85 µM	5.38	5.57	2.68	1.73	0.461	6.19	–	–	–	–	–	–
Cn1cnc([N+](=O)[O-])c1Sc1nc2cccnc2s1	–	36.5	23.6	–	60.5	–	30.8	> 100 µM	28.1	–	–	–	–	–	–	–	–	–	–	–
CC1C=CC(C)C2(O)C(=O)NC(O)C12 (stereo not drawn)	> 100	> 100	> 100	> 100	–	> 100	> 100	> 100 µM	–	–	–	–	–	–	–	–	–	–	–	–
c1ccc2c(Nc3ccc(Oc4ccc(Nc5c6ccccc6nc6ccccc56)cc4)cc3)c3ccccc3nc2c1	–	3.81	0.843	1.08	–	3.78	–	1.38 µM and 5.93 µM	0.366	0.186	0.32	0.0148	0.346	–	3.25	1.44	0.366	–	–	–
Cc1ccc(-c2nc3c(C(=O)NCCN(C)C)cccc3[nH]2)cc1	34.2	31.7	18.5	50.5	24.6	32.8	32.4	21.1 µM	86.7	–	–	–	–	–	–	–	–	–	–	–
COc1cc2c(cc1OCCCCCn1c(-c3ccco3)nc3ccccc31)N=C[C@@H]1CCCN1C2=O	0.114	< 0.0136	–	> 100	–	0.07	< 0.0149	14.3 µM	< 0.01	< 0.01	< 0.01	–	< 0.01	< 0.01	< 0.0147	< 0.01	> 100	0.023	< 0.01	< 0.01
N#CCc1ccc(/C(C#N)=C2/OC(=N)C(c3ccc(CC#N)cc3)C2=O)cc1 (stereo not drawn)	> 100	> 100	> 100	> 100	> 100	> 100	> 100	> 100 µM	> 100	–	–	–	–	–	–	–	–	–	–	–
O=C(Nc1ccc([N+](=O)[O-])cc1C(=O)O)c1ccc([N+](=O)[O-])cc1	56.7	91.6	31.4	32.3	> 100	92.2	> 100	> 100 µM	> 100	–	–	–	–	–	–	–	–	–	–	–
O=C(CC/C(CC(=O)c1ccc(Cl)cc1)=N/O)Nc1ccc(Cl)c(Cl)c1	> 100	> 100	> 100	> 100	–	> 100	> 100	> 100 µM	> 100	–	–	–	–	–	–	–	–	–	–	–
CCOC(=O)N[C@H]1CCc2cc(O)c(OC)c(OC)c2-c2ccc(SC)c(=O)cc21	–	1.25	> 100	> 100	> 100	0.173	> 100	3.58 µM	0.0375	–	–	–	–	–	–	–	–	–	–	–
Cc1cc(Cl)ccc1NC(=O)CC1SC(N)=NC1=O (stereo not drawn)	> 100	> 100	> 100	> 100	> 100	> 100	> 100	> 100 µM	> 100	–	–	–	–	–	–	–	–	–	–	–
Oc1ccccc1Nc1nc2ccccc2c2occc12	–	–	–	> 100	9.39	31	31.8	27.6 µM	16.3	–	> 100	2.43	14.1	2.48	14.1	15.1	22.8	–	–	10.9
CCC[CH2][Sn]1([CH2]CCC)[O]C(=O)c2cccc(OC)c2[O]1	0.98	3.04	1.36	1.16	0.442	0.574	0.747	2.9 µM	2.01	0.217	0.0719	0.161	1.38	0.626	0.156	0.234	–	0.106	1.63	–
Cc1ccc(NC(=O)COC(=O)c2cccc3c(=O)c4ccccc4[nH]c23)cc1	> 100	96.7	> 100	> 100	60	–	> 100	> 100 µM	> 100	–	–	–	–	–	–	–	–	–	–	–
CO/N=C(\COc1ccc2c(c1)oc(=O)c1cc(OC)ccc12)c1ccc(F)cc1	–	> 100	> 100	58.7	72.9	72.8	> 100	> 100 µM	34.2	36.6	23.9	26	23.8	16.7	23.1	87.3	66.5	–	38.1	20.9
c1ccc2c(-c3nc4ccccc4[nH]3)cccc2c1	14.8	–	83.8	18	> 100	8.68	> 100	15.8 µM	6.89	2.9	0.541	7.11	3.17	2.17	2.15	4.64	> 100	2.78	–	3.88
O=C1C2C(C(=O)N1c1ccccc1)C1(c3ccccc3)OC2(c2ccccc2)c2ccccc21 (stereo not drawn)	> 100	–	> 100	> 100	> 100	> 100	> 100	> 100 µM	> 100	–	–	–	–	–	–	–	–	–	–	–
